Results published in PubChem BioAssay AID1117337 (Cheminformatics & Chemogenomics Research Group (CCRG), …, 2015).
Where “and” joins values, the source holds several entries; their conditions need not be identical. Equal values may be shown once. Calls of active or inactive are those of the source. No rule for the calls is given here. Where a SMILES comes first, the peptide text is derived from it.

test system: ADSC/ECFC co-culture, VEGF-stimulated, CD31 tube area; test: inhibition of endothelial tube formation, dose response, imaging, VEGF stimulation, CD31 staining, tube area, IC50 (AID 1117337)

SMILES | IC50
C/C=C(/C(=C/C)c1ccc(OC(C)=O)cc1)c1ccc(OC(C)=O)cc1 | > 10 µM (inactive)
CCCCCCCCCCCCCCCCCCCCCC(=O)Nc1ccn([C@@H]2O[C@H](CO)[C@@H](O)[C@H]2O)c(=O)n1 | > 10 µM (inactive)
Cc1c(C)c2c(c(C)c1O)CC[C@@](C)(CCC[C@H](C)CCC[C@H](C)CCCC(C)C)O2 | > 10 µM (inactive)
COC(=O)Nc1nc2ccc(C(=O)C3CC3)cc2[nH]1 | 1.19 µM
O=[N+]([O-])C(Br)(CO)CO | > 10 µM (inactive)
Clc1ccc(Nc2nnc(Cc3ccncc3)c3ccccc23)cc1 | 0.111 µM
Cc1cc(OCCOCC[N+](C)(C)Cc2ccccc2)ccc1C(C)(C)CC(C)(C)C | > 10 µM (inactive)
O=C(O)C1(C(=O)O)CCC1.[NH2-].[NH2-].[Pt+2] | > 10 µM (inactive)
COC(=O)c1ccccc1C(=O)OC | > 10 µM (inactive)
O=C1C(=O)c2ccccc2C(O)=C1C1CCC(c2ccc(Cl)cc2)CC1 (stereo not drawn) | 5.18 µM (inactive)
CCOC(=O)c1ccccc1C(=O)OCC | > 10 µM (inactive)
COC(=O)c1nc(Cl)c(Cl)nc1N | 0.865 µM
Clc1cc(Cl)c(OCC#CI)cc1Cl | > 10 µM (inactive)
CCN1CCC[C@H]1CNC(=O)c1c(OC)ccc(Br)c1OC | > 10 µM (inactive)
O=c1[nH]sc2cc(Cl)ccc12 | > 10 µM (inactive)
CCCn1cnc2c1c(=O)n(CCCCC(C)=O)c(=O)n2C | > 10 µM (inactive)
Cn1ccc2cc3c(cc21)CCN3C(=O)Nc1cccnc1 | > 10 µM (inactive)
COC(=O)Nc1nc2ccc(S(=O)c3ccccc3)cc2[nH]1 (stereo not drawn) | 0.288 µM
O=S(c1cc(Cl)cc(Cl)c1O)c1cc(Cl)cc(Cl)c1O | > 10 µM (inactive)
CCCCCCCCCCCCCCCCCC[N+](C)(C)CCC[Si](OC)(OC)OC | > 10 µM (inactive)
C[C@@H](NCCCc1cccc(C(F)(F)F)c1)c1cccc2ccccc12 | > 10 µM (inactive)
Cc1cc(=O)c2c(O)c3c(O)cc(=O)c4c3c3c(cc(O)c1c23)C(C)(C)C=4O | 0.101 µM
CC(C)CCCC(C)NCCC(C)C (stereo not drawn) | > 10 µM (inactive)
CCCCCCCCCCCCCCCCCCNC(=O)OC1CCN(C(=O)OC[C@H](COC(=O)N(Cc2cccc[n+]2CC)C(=O)c2ccccc2OC)OC)CC1 | 1.5 µM
O=NN(CCCl)C(=O)NC1CCCCC1 | > 10 µM (inactive)

SMILES | IC50
CC(C)Cn1cnc2c1c(=O)n(C)c(=O)n2C | > 10 µM (inactive)
CC(=O)Oc1ccccc1C(=O)Nc1ncc([N+](=O)[O-])s1 | 2.06 µM
COc1ccc(/C=N/NC(=O)c2ccncc2)cc1OC | > 10 µM (inactive)
Oc1c(I)cc(Cl)c2cccnc12 | > 10 µM (inactive)
Oc1cc(Cl)ccc1Oc1ccc(Cl)cc1Cl | > 10 µM (inactive)
O=C(Nc1ccc(S(=O)(=O)N2CCOCC2)cc1)c1cc(Cl)ccc1NS(=O)(=O)c1ccc(Cl)s1 | > 10 µM (inactive)
C#C[C@]1(O)CC[C@@H]2[C@@H]3CCC4=CCCC[C@@H]4[C@H]3C(=C)C[C@@]21CC | > 10 µM (inactive)
CCCCCCCCCCOCC(O)CN (stereo not drawn) | 6.55 µM (inactive)
CCCCc1ccc2nc(NC(=O)OC)[nH]c2c1 | 0.053 µM
O=C1C(I)=CC(=C(c2cc(I)c(O)c(I)c2)c2ccccc2C(=O)O)C=C1I | > 10 µM (inactive)
COc1ccc(/C=C/C(=O)c2ccc(OC)cc2OC)cc1 | 6.66 µM (inactive)
Nc1cc(C(F)(F)F)ccc1S | > 10 µM (inactive)
CC=CC1C(C(=O)OCc2c(F)c(F)c(COC)c(F)c2F)C1(C)C (stereo not drawn) | > 10 µM (inactive)
CN(C)/N=N/c1nc[nH]c1C(N)=O | 4.59 µM
CCC1=C[C@@H]2CN(C1)Cc1c([nH]c3ccccc13)[C@@](C(=O)OC)(c1cc3c(cc1OC)N(C)[C@H]1[C@@](O)(C(=O)OC)[C@H](OC(C)=O)[C@]4(CC)C=CCN5CC[C@]31[C@@H]54)C2 | 0.0055 µM
C1CN(P2(N3CC3)=NP(N3CC3)(N3CC3)=NP(N3CC3)(N3CC3)=N2)CCO1 (stereo not drawn) | 3.62 µM
Clc1ccc(C(Cn2ccnc2)OCc2ccc(Sc3ccccc3)cc2)c(Cl)c1 (stereo not drawn) | > 10 µM (inactive)
CNS(=O)(=O)CCc1ccc2[nH]cc(C3CCN(C)CC3)c2c1 | > 10 µM (inactive)
Oc1ccc(/C=C/c2cc(O)cc(O)c2)cc1 | > 10 µM (inactive)
COc1cc(S(N)(=O)=O)cc(C(=O)O)c1OC | > 10 µM (inactive)
COCC(=O)O[C@]1(CCN(C)CCCc2nc3ccccc3[nH]2)CCc2cc(F)ccc2[C@@H]1C(C)C | > 10 µM (inactive)
CC[C@]1(O)C[C@@H]2CN(CCc3c([nH]c4ccccc34)[C@@](C(=O)OC)(c3cc4c(cc3OC)N(C)[C@H]3[C@@](O)(C(=O)OC)[C@H](OC(C)=O)[C@]5(CC)C=CCN6CC[C@]43[C@@H]65)C2)C1 | 0.0026 µM and 0.0023 µM
CCCCCCCCCCCC[N+](C)(C)CCOc1ccccc1 | 3.38 µM
NC1=NCC2c3ccccc3Cc3ccccc3N12 (stereo not drawn) | > 10 µM (inactive)
CCc1cccc(N(C)C(N)=Nc2cccc3ccccc23)c1 | > 10 µM (inactive)

SMILES | IC50
CCCCC(CC)COC(=O)C(C#N)=C(c1ccccc1)c1ccccc1 (stereo not drawn) | > 10 µM (inactive)
CCC(C)n1ncn(-c2ccc(N3CCN(c4ccc(OC[C@H]5CO[C@](Cn6cncn6)(c6ccc(Cl)cc6Cl)O5)cc4)CC3)cc2)c1=O (stereo partly drawn) | 1.55 µM
c1ccc2c(c1)Sc1ccccc1N2CC1CN2CCC1CC2 (stereo not drawn) | 9.44 µM (inactive)
Cc1nc2ccccc2n1Cc1ccc(Cl)cc1 | 7.38 µM (inactive)
Cc1[nH]cnc1C[C@H]1CCc2c(C)c3ccccc3n2C1=O | > 10 µM (inactive)
C=CCN1CC[C@]23CCCC[C@H]2[C@H]1Cc1ccc(O)cc13 | > 10 µM (inactive)
O=C1NCN(c2ccccc2)C12CCN(CCCC(c1ccc(F)cc1)c1ccc(F)cc1)CC2 | > 10 µM (inactive)
NC(=O)[C@@H]1CSSCCC(=O)N[C@@H](CCCCN=C(N)N)C(=O)NCC(=O)N[C@@H](CC(=O)O)C(=O)N[C@@H](Cc2c[nH]c3ccccc23)C(=O)N2CCC[C@H]2C(=O)N1 (HELM PEPTIDE1{[O=C(CCS[*:3])[*:2]].[N=C(N)NCCCC[C@H](N[*:1])C(=O)[*:2]].G.D.W.P.C.[am]}$PEPTIDE1,PEPTIDE1,1:R3-7:R3$$$V2.0) | > 10 µM (inactive)
CCCCC1C(=O)N(c2ccccc2)N(c2ccc(O)cc2)C1=O (stereo not drawn) | 3.29 µM
CN1CCCC(CC2c3ccccc3Sc3ccccc32)C1 (stereo not drawn) | 8.68 µM (inactive)
COCc1c(C(C)C)nc(C(C)C)c(/C=C/[C@@H](O)C[C@@H](O)CC(=O)O)c1-c1ccc(F)cc1 | 0.0894 µM
CC(CC=O)CCCC(C)(C)O (stereo not drawn) | > 10 µM (inactive)
CCCCCCCCCCCCCC[N+](C)(C)C | 1.9 µM
Cc1c(C(=O)NN2CCCCC2)nn(-c2ccc(Cl)cc2Cl)c1-c1ccc(Cl)cc1 | > 10 µM (inactive)
Nc1nc(F)nc2c1ncn2[C@@H]1O[C@H](CO)[C@@H](O)[C@@H]1O | 8.45 µM (inactive)
Clc1ccc(C(Cn2ccnc2)OCc2ccsc2Cl)c(Cl)c1 (stereo not drawn) | 5 µM
CCCCN(CCCC)CCC(O)c1cc2c(Cl)cc(Cl)cc2c2cc(C(F)(F)F)ccc12 (stereo not drawn) | > 10 µM (inactive)
Cc1nc(Nc2ncc(C(=O)Nc3c(C)cccc3Cl)s2)cc(N2CCN(CCO)CC2)n1 | > 10 µM (inactive)
CN(C)CCOC1=Cc2ccccc2Sc2ccc(Cl)cc21 | > 10 µM (inactive)
O=[N+]([O-])c1cccc(S(=O)(=O)NCCNS(=O)(=O)c2cccc([N+](=O)[O-])c2)c1 | > 10 µM (inactive)
O=C(O)c1ccc(-n2nc(-c3ccccc3O)nc2-c2ccccc2O)cc1 | 2.09 µM
O=[N+]([O-])c1cc(I)c(O)c(I)c1 | > 10 µM (inactive)
O=C(CCBr)N1CCN(C(=O)CCBr)CC1 | 1.37 µM
CCCCCCCCCCCCCC[N+](C)(C)Cc1ccccc1 | 3.01 µM
NC(=NCCCCCCN=C(N)/N=C(\N)Nc1ccc(Cl)cc1)/N=C(\N)Nc1ccc(Cl)cc1 | 1.35 µM

SMILES | IC50
Cc1ccc(O)cc1 | > 10 µM (inactive)
COC(=O)CCCCC(CCSS/C(CCO)=C(\C)N(C=O)Cc1cnc(C)nc1N)SC(C)=O (stereo not drawn) | > 10 µM (inactive)
NC(=O)C1(N2CCCCC2)CCN(CCCN2c3ccccc3CCc3ccc(Cl)cc32)CC1 | 3.4 µM
Clc1ccc(CCC(Cn2ccnc2)Sc2c(Cl)cccc2Cl)cc1 (stereo not drawn) | 3.53 µM
COc1cc(NCc2ccc3nc(N)nc(N)c3c2C)cc(OC)c1OC | 4.42 µM
O=C(NC(=O)c1c(F)cccc1F)Nc1ccc(Cl)c(Oc2ncc(C(F)(F)F)cc2Cl)c1 | > 10 µM (inactive)
COc1cccc2c1C(=O)c1c(O)c3c(c(O)c1C2=O)C[C@@](O)(C(=O)CO)CC3OC1CC(N2CCOC(OC)C2)C(O)C(C)O1 (stereo partly drawn) | 0.003 µM
Cc1cc(OI)c(C(C)C)cc1-c1cc(C(C)C)c(OI)cc1C | > 10 µM (inactive)
Oc1c(Br)cc(Br)c2cccnc12 | > 10 µM (inactive)
COc1cc([C@@H]2c3cc4c(cc3[C@H](O)[C@H]3COC(=O)[C@H]23)OCO4)cc(OC)c1OC | 0.0081 µM
O[C@@H](c1cc(C(F)(F)F)nc2c(C(F)(F)F)cccc12)[C@H]1CCCCN1 | > 10 µM (inactive)
CCOc1ccc2nc3cc(N)ccc3c(N)c2c1 | 4.94 µM
CCCSc1ccc2nc(NC(=O)OC)[nH]c2c1 | 0.355 µM
CCC1Nc2cc(Cl)c(S(N)(=O)=O)cc2S(=O)(=O)N1 (stereo not drawn) | > 10 µM (inactive)
CCc1oc2ccccc2c1C(=O)c1cc(Br)c(O)c(Br)c1 | > 10 µM (inactive)
Clc1ccc(CSC(Cn2ccnc2)c2ccc(Cl)cc2Cl)cc1 (stereo not drawn) | 2.13 µM
CC(C)(C)C1CCC(CC2=C(O)c3ccccc3C(=O)C2=O)CC1 (stereo not drawn) | 1.96 µM
CC[C@@]1(O)C(=O)OCc2c1cc1n(c2=O)Cc2c-1nc1ccccc1c2/C=N/OC(C)(C)C | 0.002 µM
CCCCC[C@@H](O)CC[C@H]1[C@@H]2Cc3cccc(OCC(=O)O)c3C[C@@H]2C[C@@H]1O | > 10 µM (inactive)
CC(C)=CCCC(C)=CCCC(C)=CCCC=C(C)CCC=C(C)CCC=C(C)C | > 10 µM (inactive)
CSc1ccc2c(c1)C(N1CCN(C)CC1)Cc1ccccc1S2 (stereo not drawn) | > 10 µM (inactive)
COCC(C)N(C(=O)CCl)c1c(C)csc1C (stereo not drawn) | > 10 µM (inactive)
CC(C)(CO)[C@@H](O)C(=O)NCCC(=O)NCCSSCCNC(=O)CCNC(=O)[C@H](O)C(C)(C)CO | > 10 µM (inactive)
